Measurements as given in PubChem BioAssay (NCI).
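Exposure lasted 48 hours, with cells grown in 96-well plates and compounds tested at five concentrations. GI50 = concentration required for 50% inhibition of growth. TGI marks complete inhibition of growth.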

Experiments:
Assay in all cases: NCI anticancer screen, dose series, 48 h
[1] = test system: COLO 205 colon
[2] = test system: OVCAR-4 ovarian
[3] = test system: SR leukemia
[4] = test system: HL-60(TB) leukemia
[5] = test system: NCI/ADR-RES ovarian
[6] = test system: A549 NSCLC
[7] = test system: SNB-75 CNS
[8] = test system: M14 melanoma
[9] = test system: CCRF-CEM leukemia
[10] = test system: BT-549 breast
[11] = test system: RXF 393 renal
[12] = test system: OVCAR-5 ovarian
[13] = test system: T-47D breast
[14] = test system: SK-MEL-28 melanoma
[15] = test system: SK-MEL-5 melanoma
[16] = test system: NCI-H522 lung
[17] = test system: EKVX NSCLC
[18] = test system: SK-MEL-2 melanoma
[19] = test system: CAKI-1 renal
[20] = test system: RPMI-8226 leukemia
[21] = test system: KM12 colon
[22] = test system: LOX IMVI melanoma
[23] = test system: HOP-62 NSCLC
[24] = test system: MDA-MB-435
[25] = test system: SN12C renal
[26] = test system: 786-0 renal
[27] = test system: NCI-H226 lung
[28] = test system: NCI-H23 lung
[29] = test system: SF-539 CNS
[30] = test system: MDA-MB-231 breast
[31] = test system: HCT-116 colon
[32] = test system: SF-268 CNS
[33] = test system: OVCAR-8 ovarian
[34] = test system: K-562 leukemia
[35] = test system: NCI-H460 lung
[36] = test system: HT29 colon
[37] = test system: SK-OV-3 ovarian
[38] = test system: PC-3 prostate
[39] = test system: HOP-92 NSCLC
[40] = test system: SF-295 CNS
[41] = test system: HCT-15 colon
[42] = test system: DU-145 prostate
[43] = test system: SW-620 colon
[44] = test system: HS 578T breast
[45] = test system: IGROV1 ovarian
[46] = test system: U251 CNS
[47] = test system: MOLT-4 leukemia
[48] = test system: TK-10 renal
[49] = test system: A498 renal
[50] = test system: UACC-62 melanoma
[51] = test system: OVCAR-3 ovarian
[52] = test system: MDA-MB-468 breast
[53] = test system: UO-31 renal
[54] = test system: HCC-2998 colon
[55] = test system: MCF7 breast
[56] = test system: SNB-19 CNS
[57] = test system: UACC-257 melanoma
[58] = test system: ACHN renal

COc1sc(/C=N/NC(=O)c2[nH]c3ccc(Br)cc3c2-c2ccccc2)cc1Br gave a GI50 [1] of 0.223 µM, a TGI [1] of 0.516 µM and a GI50 [2] of 9.78 µM. For the same molecule, the TGI [2] was greater than 100 µM, the GI50 [3] was 1.1 µM and the TGI [3] was greater than 100 µM. It also gave a GI50 [4] of 1.62 µM, a TGI [4] of 5.53 µM and a GI50 [5] of 2.12 µM. The TGI [5] was 6.45 µM, the GI50 [6] was 3.35 µM and the TGI [6] was greater than 100 µM. It also gave a GI50 [7] of 0.359 µM, a TGI [7] of 25.3 µM and a GI50 [8] of 2.25 µM. It also gave a TGI [8] greater than 100 µM, a GI50 [9] of 2.11 µM and a TGI [9] greater than 100 µM. For the same molecule, the GI50 [10] was 3.3 µM, the TGI [10] was 8.1 µM and the GI50 [11] was 4.27 µM. For the same molecule, the TGI [11] was greater than 100 µM, the GI50 [12] was 3.39 µM and the TGI [12] was 69.9 µM. For the same molecule, the GI50 [13] was 45.2 µM, the TGI [13] was greater than 100 µM and the GI50 [14] was 4.89 µM. For the same molecule, the TGI [14] was greater than 100 µM, the GI50 [15] was 2.12 µM and the TGI [15] was 4.97 µM. For the same molecule, the GI50 [16] was 0.259 µM, the TGI [16] was 0.686 µM and the GI50 [17] was 5.7 µM. It also gave a TGI [17] greater than 100 µM, a GI50 [18] of 5.12 µM and a TGI [18] greater than 100 µM. The GI50 [19] was 0.892 µM, the TGI [19] was greater than 100 µM and the GI50 [20] was 1.92 µM. It also gave a TGI [20] greater than 100 µM, a GI50 [21] of 3.03 µM and a TGI [21] greater than 100 µM. It also gave a GI50 [22] of 2.93 µM, a TGI [22] of 35.8 µM and a GI50 [23] of 0.353 µM. It also gave a TGI [23] of 37.5 µM, a GI50 [24] of 0.324 µM and a TGI [24] of 1.8 µM. It also gave a GI50 [25] of 2.91 µM, a TGI [25] greater than 100 µM and a GI50 [26] of 2.84 µM. It also gave a TGI [26] greater than 100 µM, a GI50 [27] of 2.87 µM and a TGI [27] of 68.9 µM. For the same molecule, the GI50 [28] was 3.67 µM, the TGI [28] was greater than 100 µM and the GI50 [29] was 1.93 µM. The TGI [29] was 5.51 µM, the GI50 [30] was 3.21 µM and the TGI [30] was greater than 100 µM. For the same molecule, the GI50 [31] was 1.25 µM, the TGI [31] was greater than 100 µM and the GI50 [32] was 2.82 µM. The TGI [32] was greater than 100 µM, the GI50 [33] was 0.499 µM and the TGI [33] was greater than 100 µM. For the same molecule, the GI50 [34] was 0.508 µM, the TGI [34] was greater than 100 µM and the GI50 [35] was 3.03 µM. It also gave a TGI [35] of 12.4 µM, a GI50 [36] of 1.16 µM and a TGI [36] greater than 100 µM. It also gave a GI50 [37] of 0.365 µM, a TGI [37] greater than 100 µM and a GI50 [38] of 3.14 µM. The TGI [38] was greater than 100 µM, the GI50 [39] was 26.5 µM and the TGI [39] was greater than 100 µM. For the same molecule, the GI50 [40] was 2.84 µM, the TGI [40] was greater than 100 µM and the GI50 [41] was 3.27 µM. The TGI [41] was greater than 100 µM, the GI50 [42] was 3.36 µM and the TGI [42] was greater than 100 µM. The GI50 [43] was 3.28 µM, the TGI [43] was greater than 100 µM and the GI50 [44] was 1.92 µM. For the same molecule, the TGI [44] was greater than 100 µM, the GI50 [45] was 3.5 µM and the TGI [45] was greater than 100 µM. For the same molecule, the GI50 [46] was 3.65 µM, the TGI [46] was greater than 100 µM and the GI50 [47] was 3.16 µM. For the same molecule, the TGI [47] was 35.6 µM, the GI50 [48] was 88.9 µM and the TGI [48] was greater than 100 µM. For the same molecule, the GI50 [49] was 5.44 µM, the TGI [49] was 39.4 µM and the GI50 [50] was 0.988 µM. The TGI [50] was greater than 100 µM, the GI50 [51] was 1.2 µM and the TGI [51] was 12 µM. It also gave a GI50 [52] of 2.18 µM, a TGI [52] of 6.88 µM and a GI50 [53] of 4.21 µM. It also gave a TGI [53] greater than 100 µM, a GI50 [54] of 3.74 µM and a TGI [54] greater than 100 µM. For the same molecule, the GI50 [55] was 1.54 µM, the TGI [55] was greater than 100 µM and the GI50 [56] was 3.98 µM. The TGI [56] was greater than 100 µM, the GI50 [57] was greater than 100 µM and the TGI [57] was greater than 100 µM. It also gave a GI50 [58] of 3.27 µM and a TGI [58] greater than 100 µM.
